# Test results as given in US7465576B2, “Method for treating periodontal disease with a bacteriocidal disinfectant” (priority 2004, dated 2008).
# Where two headings read alike, the source gives them in different places.
# How the values were obtained:
# [1] = tested on: detached skin wounds of mice; experiment: Recovery from skin damage (Test Example 5); type: in vivo; conditions: applied to wound twice a day
# [2] = tested on: plaque adhering to supragingival calculus; experiment: Viable cell numbers in plaque soaked in disinfectant (Test Example 4); type: cell-based; conditions: 60 minutes of immersion
# MRSA or E. coli O-157 = type: cell-based; conditions: organic substance exceeding 50 ppm
# thumbnails of volunteers = experiment: Elongation of thumbnails (Test Example 7); type: in vivo, human; conditions: Left (treated) thumbnail
# Excerpt: As a general rule the bacterial disinfectants were applied immediately after hand washing. Nail growth and shape are closely tied to individual physical condition, and are a benchmark of health.
# Procedure for Red worms: Red worms with a mean length of 40 mm were prepared in groups of 10, the annuli of the red worms were severed with a cutter, and ordinary concentrations of the various bactericidal disinfectants contained in absorbent cotton were applied to the severed ends twice a day, morning and night. Application to the ends was continued even after the severed ends healed, and recovery and growth were observed. Water was applied as a control.
smiles,measurement,setting,value
"CC(O)C(=O)O.CCOc1ccc2nc3cc(N)ccc3c(N)c2c1 [Acrinol, acrinol]",length of severed red worms,"Red worms; 5 days after severing, 20 mm when severed",21 mm
same,length of severed red worms,Red worms; 10 days after severing,22 mm
same,length of severed red worms,Red worms; 15 days after severing,23 mm
same,length of severed red worms,Red worms; 20 days after severing,24 mm
same,length of severed red worms,Red worms; 30 days after severing,27 mm
same,length of severed red worms,Red worms; 40 days after severing,29 mm
same,length of severed red worms,Red worms; 50 days after severing,30 mm
same,Deaths,Red worms; groups of 10 red worms,8
same,Recovery: Complete recovery (coat grown back),[1],40 days
same,Recovery: Skin with roughly original thickness,[1],15 days
same,Recovery: Thin skin overall,[1],5 days
same,survival of bacteria living inside plaque,[2],half survived
same,bactericidal effect in presence of organic substance,MRSA or E. coli O-157,A similar tendency was seen
same,Elongation of nails,thumbnails of volunteers; 10 days,0.8 mm
same,Elongation of nails,thumbnails of volunteers; 20 days,1.6 mm
same,Elongation of nails,thumbnails of volunteers; 30 days,2.4 mm
same,Elongation of nails,thumbnails of volunteers; 40 days,3.3 mm
same,Elongation of nails,thumbnails of volunteers; 50 days,4.0 mm
same,Elongation of nails,thumbnails of volunteers; 60 days,4.8 mm
